Common to all, as to format: functional
The test system of assay [1] is Rattus norvegicus. The experiment in a line: Effect was expressed as mortality after injection of kainic acid (10 mg/kg) and the drug at the dose of 20 mg/Kg after 48 hr out of 19 animals.
The test system of assay [2] is Rattus norvegicus. The experiment in a line: The compound was tested for anticonvulsive activity expressed as seizure score after 4 hr of injection of kainic acid (10 mg/kg) and the drug at the dose of 20 mg/Kg in 15 rats.
The subject of assay [3] is Rattus norvegicus. The experiment in a line: Effect was expressed as mortality after injection of kainic acid (10 mg/kg) and the drug at the dose of 40 mg/Kg after 48 hr.
Assay [4] concerns Rattus norvegicus. The assay is described as follows: The compound was tested for anticonvulsive activity expressed as seizure score after 4 hr of injection of kainic acid (10 mg/kg) and the drug at the dose of 40 mg/Kg in 15 rats.
For assay [5], the system named is Rattus norvegicus. The experiment in a line: The compound was examined for circling behavior (marginal activity) using automated videotracking system 30 min after intraperitoneal injection at the dose of 20 mg/Kg in 12 rats.
Assay [6] has as its system Rattus norvegicus. The assay is described as follows: The compound was examined for circling behavior (marginal activity) using automated videotracking system 30 min after intraperitoneal injection at the dose of 40 mg/Kg in 12 rats.
Assay [7] deals with Rattus norvegicus. The experiment in a line: The compound was tested for anticonvulsive activity expressed as seizure score after 4 hr of injection of kainic acid (10 mg/kg) in 15 rats.
Assay [8] relates to Rattus norvegicus. The experiment in a line: The compound was examined for circling behavior (marginal activity) using automated videotracking system 30 min after intraperitoneal injection at the dose of 5 mg/Kg in 12 rats.

The structures appear in SMILES notation.

As to `COc1ccc2c(c1)C13CCCCC1C(C2)NCC3` (configuration not stated), the Mortality with Rattus norvegicus [1] and in the assay with Rattus norvegicus [3] was 4 in each case. The Seizure score in the assay on Rattus norvegicus [2] is 2.4; in the assay with Rattus norvegicus [4], 2. The “Absolute turn angular/3 min” value is 186 with Rattus norvegicus [5] and 258 in the assay on Rattus norvegicus [6].

`Oc1ccc2c(c1)C13CCCCC1C(C2)NCC3` (configuration not stated): the Mortality in the assay with Rattus norvegicus [1] is reported as 5; in the assay on Rattus norvegicus [3], 4. The Seizure score in the assay on Rattus norvegicus [2] was determined as 2.5; in the assay on Rattus norvegicus [4], 2.1. The “Absolute turn angular/3 min” value in the assay on Rattus norvegicus [5] came out at 194; with Rattus norvegicus [6] it was 262.

In the case of `C=CCOc1ccc2c(c1)C13CCCCC1C(C2)NCC3` (configuration not stated), the Mortality in the assay with Rattus norvegicus [1] came out at 11; with Rattus norvegicus [3], 1. Moreover, the values for the Seizure score in the assay with Rattus norvegicus [2] and in the assay on Rattus norvegicus [4] were 1.5 and 1, respectively. The “Absolute turn angular/3 min” value with Rattus norvegicus [5] is 152; with Rattus norvegicus [6] it was 184.

On to `C=CCN1CCC23CCCCC2C1Cc1ccc(OC)cc13` (configuration not stated), for which the Mortality in the assay on Rattus norvegicus [1] and in the assay on Rattus norvegicus [3] was 6 throughout. The Seizure score in the assay with Rattus norvegicus [2] was determined as 2.9; with Rattus norvegicus [4] it was 2.2. Also, the “Absolute turn angular/3 min” value with Rattus norvegicus [5] is 224; with Rattus norvegicus [6], 282.

With `C=CCOc1ccc2c(c1)C13CCCCC1C(C2)N(CC1CC1)CC3` (configuration not stated), the Mortality in the assay on Rattus norvegicus [1] and in the assay with Rattus norvegicus [3] was 4 in each case. The Seizure score with Rattus norvegicus [2] is on record as 2.8; in the assay with Rattus norvegicus [4], 2. In addition, the “Absolute turn angular/3 min” value with Rattus norvegicus [5] is 172; in the assay on Rattus norvegicus [6], 250.

Take `C=CCOc1ccc2c(c1)C13CCCCC1C(C2)N(C)CC3` (configuration not stated): the Mortality in the assay on Rattus norvegicus [1] and in the assay with Rattus norvegicus [3] was 3 throughout. For the same compound, the Seizure score in the assay on Rattus norvegicus [2] turned out to be 1.9; in the assay with Rattus norvegicus [4], 1.5. Further, the results for the “Absolute turn angular/3 min” value with Rattus norvegicus [5] and in the assay on Rattus norvegicus [6] were 168 and 219, respectively.

Turning to `CN1CCC23CCCCC2C1Cc1ccc(OCC2CC2)cc13` (configuration not stated), the Mortality worked out at 3 in the assay on Rattus norvegicus [1] and 2 with Rattus norvegicus [3]. Moreover, the Seizure score is 1.8 with Rattus norvegicus [2] and 1.3 in the assay with Rattus norvegicus [4]. Moreover, the results for the “Absolute turn angular/3 min” value in the assay on Rattus norvegicus [5] and with Rattus norvegicus [6] were 160 and 202, respectively.

As to `C=CCN1CCC23CCCCC2C1Cc1ccc(OCC2CC2)cc13` (configuration not stated), the Mortality in the assay on Rattus norvegicus [1] came to 5; in the assay with Rattus norvegicus [3] it was 4. Besides, the Seizure score in the assay with Rattus norvegicus [2] is 2.7; in the assay with Rattus norvegicus [4], 2.2. In addition, the “Absolute turn angular/3 min” value in the assay on Rattus norvegicus [5] turned out to be 175; in the assay on Rattus norvegicus [6], 242.

Turning to `C=C(C)[C@H]1CN[C@H](C(=O)O)[C@H]1CC(=O)O` [KAINIC ACID], in the assay with Rattus norvegicus [7], the Seizure score came out at 4.2.

On to `CN1CC[C@]23CCCC[C@H]2[C@H]1Cc1ccc(O)cc13` [LEVORPHANOL], for which the Mortality in the assay on Rattus norvegicus [1] is 5; in the assay with Rattus norvegicus [3] it was 4. The Seizure score with Rattus norvegicus [2] was determined as 2.8; in the assay on Rattus norvegicus [4] it was 1.8. Also, the “Absolute turn angular/3 min” value in the assay with Rattus norvegicus [5] worked out at 310; in the assay on Rattus norvegicus [6] it was 384.

Turning to `c1ccc(C2(N3CCCCC3)CCCCC2)cc1` [PHENCYCLIDINE], in the assay on Rattus norvegicus [8], the “Absolute turn angular/3 min” value came to 420.

As for `COc1ccc2c(c1)C13CCCCC1C(C2)N(C)CC3` (stereo not drawn) [RACEMETHORPHAN], the Mortality in the assay with Rattus norvegicus [1] is 4; with Rattus norvegicus [3], 2. Also, the values for the Seizure score in the assay with Rattus norvegicus [2] and with Rattus norvegicus [4] were 2.2 and 1.4, respectively. Also, the “Absolute turn angular/3 min” value came out at 192 with Rattus norvegicus [5] and 265 in the assay on Rattus norvegicus [6].

For the origin of these results see ChEMBL document CHEMBL1134110, “Anticonvulsant effects of new morphinan derivatives” (2001).
